For data set [1], the system named is histamine H2-receptor. The conditions noted are these: relative to burimamide or metiamide; cited from earlier work.
Data set [2] concerns histamine-stimulated gastric acid output. Kind of data set: Gastric Antisecretory Activity In The Heidenhain Pouch Dog. It counts as in vivo, female dogs. The procedure: Determination of Gastric Antisecretory Activity In The Heidenhain Pouch Dog
Prior to surgery, hematology and blood chemistry profiles are obtained and an assessment made as to the general health of selected female dogs. Dogs are vaccinated with Tissue Vax 5 (DHLP--Pitman-Moore) and housed in general animal quarters for four weeks' observation so incipient diseases may become apparent. Dogs are fasted with water ad libitum 24 hours prior to surgery.
Anesthesia is induced with Sodium Pentothal (Abbott) 25-30 mg/kg iv. Subsequent anesthesia is maintained with methoxyflurane (Pitman-Moore). A midline linea alba incision from xiphoid to umbilicus provides good exposure and ease of closure. The stomach is pulled up into the operative field, the greater curvature stretched out at multiple points and clamps placed along the selected line of incision. The pouch is made from the corpus of the stomach so that true parietal cell juice is obtained. About 30% of the corpus volume is resected. The cannula is made of light-weight,biologically-inert material such as nylon or Delrin with dimensions and attachments after DeVito and Harkins (J. Appl. Physiol., 14, 138 (1959). Post operatively, dogs are medicated with antibiotics and an analgesic. They are allowed 2-3 months for recovery. Experiments are carried out in the following way: Dogs are fasted overnight (≈18 hours) with water ad libitum prior to each experiment. The dogs are placed in a sling and a saphenous vein cannulated for drug administration. Histamine as the base (100 μg/kg/hr) and chlorpheniramine maleate (0.25 mg/kg/hr) are infused continuously (in a volume of 6 ml/hr) with a Harvard infusion pump.
Ninety minutes' infusion are allowed for the dogs to reach a steady state of acid output. At this time the drug or normal saline (control) is administered concomitantly with the secretagogue in a volume of 0.5 ml/kg over a 30 second period. When oral studies are to be carried out, the drug is administered via gastric gavage in a volume of 5 ml/kg. Infusion of the secretagogue is continued and 15 minute samples of the gastric juice are taken for 4.5 hours. Each sample is measured to the nearest 0.5 ml and titratable acidity is determined by titrating a 1 ml sample to pH 7.0 with 0.2N NaOH, using an Autoburet and an electrometric pH meter (Radiometer). Titratable acid output is calculated in microequivalents by multiplying the volume in milliliters by the acid concentration in milliequivalents per liter.
Results are expressed as percent inhibition relative to control readings and the response is the average for five dogs at that dose level.

Data set [3] relates to gastric acid secretion. Description: Gastric Antisecretory Activity in the Gastric Fistula Rat. It counts as in vivo, Male Long Evans rats. The conditions noted are these: sc. On the procedure: Determination of Gastric Antisecretory Activity in the Gastric Fistula Rat Male Long Evans rats weighing about 240-260 grams at the time of cannula implantation are used. […] The fistula components are designed and the operative procedure is carried out exactly as described in the above reference. Post operatively the animals are individually housed in solid bottom cages with sawdust and are allowed food and water ad libitum throughout the entire recovery period. Animals are not used for test purposes for at least 15 days after the operative procedure. The animals are fasted but allowed water ad libitum for 20 hours before the testing procedure is to begin. […] The catheter is then screwed into the cannula in place of the plugging screw and the rat is placed in a clear plastic rectangular cage measuring 40 cm long, 15 cm wide and 13 cm high. The bottom of the cage has a slit approximately 1.5 cm wide and 25 cm long running down the center to accommodate the catheter which hangs through it. […] Chem. Path. […] Titratable acid output is calculated in microequivalents by multiplying the volume in milliliters by the acid concentration in milliequivalents per liter. Results are expressed as percent inhibition relative to control readings. Dose response curves are constructed and ED50 values are calculated by regression analyses. […]

The subject of data set [4] is histamine H2-receptor. The conditions noted are these: man; cited from earlier work.
For data set [5] the following is noted: cited from earlier work.

Data on four compounds can be found in patent US4772704A, “2,5-disubstituted-4(3H)-pyrimidones having histamine H2 -receptor antagonist activity” (Bristol-Myers Company, priority 1983, dated 1988).

Broadly, the ED50 is the dose at which the effect has come halfway, by size or by number of responders.

As for `CNC(=NC#N)NCCSCc1nc[nH]c1C` [Cimetidine, reference compound], the “potency or effectiveness as histamine H2-antagonist, relative” value in data set [1] was “as effective an histamine H2 -antagonist as metiamide”. Moreover, the “% Maximum Inhibition” value is recorded as 94% in data set [2] (Intravenous, dose 6.0 μmoles/kg, Heidenhain pouch dog) and 95% in data set [2] (Oral, dose 12.0 μmoles/kg, Heidenhain pouch dog).

Regarding `Nc1cnc(NCCCOc2cccc(CN3CCCCC3)c2)[nH]c1=O` [Example 2, 5-Amino-2-[3-(3-piperidinomethylphenoxy)propylamino]-4(3H)-pyrimidone], the ED50 in data set [3] was 0.15 µmol/kg. Also, the “Potency Ratio [cimetidine = 1.0]” value in data set [3] (cimetidine = 1.0) was determined as 26; in data set [2] (Intravenous) it was 50; in data set [2] (Oral), 20. The “% Maximum Inhibition” value in data set [2] (Intravenous, single dose 0.094 μmoles/kg, 5 dogs) was 90%; in data set [2] (Oral, single dose 0.5 μmoles/kg, 5 dogs), 86%. In data set [2] (both the intravenous and oral dog models), the “duration of antisecretory action relative to cimetidine” value was “prolonged duration of action relative to cimetidine”.

For `CNC(=S)NCCSCc1nc[nH]c1C` [Metiamide], in data set [4], the oral activity result is on record as “orally active in man”. Also, in data set [1], the “potency or effectiveness as histamine H2-antagonist, relative” value is “more potent than burimamide”.

`CNC(=S)NCCCCc1cnc[nH]1` [Burimamide]: in data set [5], the oral absorption entry was “poor”.
